# Changes are numbered by the printed parent chain. Values joined by “and” are separate entries in the source; they are usually repeats but may differ in a detail not shown here. Identical values can stand only once.
# Experiments:
# [1] = target: T1, GluD2-Lc-(H)GluN1 (Rattus norvegicus, UniProt Q63226, A654T/A766F/D542Y/D767R/N763E/R768S/S544G/T764L/V761T/V765F/Y543Q); test: Two-electrode voltage clamp in Xenopus oocytes, inhibition of spontaneous currents; format: cell-based
# T1 construct: the function of full-length receptors as well, we introduced them into the GluD2 lurcher mutant (GluD2-Lc); expressed in transfected cells; host or cells: Xenopus laevis oocytes injected with cRNA
# T1 sequence (Q63226 24-1007 D542Y/Y543Q/S544G/A654T/V761T/N763E/T764L/V765F/A766F/D767R/R768S): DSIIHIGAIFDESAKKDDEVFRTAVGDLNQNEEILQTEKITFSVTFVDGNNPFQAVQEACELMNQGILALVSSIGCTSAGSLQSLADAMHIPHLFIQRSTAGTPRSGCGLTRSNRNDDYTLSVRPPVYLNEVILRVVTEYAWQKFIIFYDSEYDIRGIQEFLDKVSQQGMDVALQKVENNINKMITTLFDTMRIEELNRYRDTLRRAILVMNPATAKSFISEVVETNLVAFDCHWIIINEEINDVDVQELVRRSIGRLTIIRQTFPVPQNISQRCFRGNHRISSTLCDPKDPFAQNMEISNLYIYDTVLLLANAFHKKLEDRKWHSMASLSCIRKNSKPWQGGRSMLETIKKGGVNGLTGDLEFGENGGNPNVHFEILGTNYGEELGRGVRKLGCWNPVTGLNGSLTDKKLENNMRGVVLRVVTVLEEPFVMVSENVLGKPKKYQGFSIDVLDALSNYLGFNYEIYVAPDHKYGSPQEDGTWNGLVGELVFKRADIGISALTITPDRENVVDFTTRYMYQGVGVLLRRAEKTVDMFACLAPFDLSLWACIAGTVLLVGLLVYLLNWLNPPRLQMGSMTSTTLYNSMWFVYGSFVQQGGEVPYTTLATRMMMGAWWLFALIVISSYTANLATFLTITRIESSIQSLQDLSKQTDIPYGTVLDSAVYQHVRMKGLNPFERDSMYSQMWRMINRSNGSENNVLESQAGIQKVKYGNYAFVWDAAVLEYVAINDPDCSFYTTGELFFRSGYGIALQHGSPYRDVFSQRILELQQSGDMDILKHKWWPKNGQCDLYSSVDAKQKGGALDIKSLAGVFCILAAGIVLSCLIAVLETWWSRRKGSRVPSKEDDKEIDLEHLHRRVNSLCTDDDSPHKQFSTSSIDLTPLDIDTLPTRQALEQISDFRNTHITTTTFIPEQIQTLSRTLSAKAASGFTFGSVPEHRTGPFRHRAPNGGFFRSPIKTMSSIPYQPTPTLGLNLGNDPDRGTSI
# Source text: (§1) All cDNAs for expression in Xenopus oocytes were cloned into the vector pSGEM[30]. Point mutants of GluD2-Lc were constructed by overlap extension PCR with mutagenic oligonucleotide primers. The GluD2-Lc-(H)GluN1 chimera was constructed by transferring the S1- and S2-encoding sequences from GluD2-LBD-(H)GluN1 to GluD2-Lc via overlap extension PCR using tail primers. The S1 and S2 sequences were transferred separately, yielding GluD2-Lc-(HS1)GluN1 and GluD2-Lc-(HS2)GluN1 constructs. GluD2-Lc-(H)GluN1 was then produced from these by another overlap extension PCR. Complementary RNA (cRNA) for injection into oocytes was synthesised from 1 μg of linearised template DNA with the mMESSAGE mMACHINE in vitro transcription kit (Ambion, Austin, TX, USA).
# (§2) Oocytes were obtained by surgically removing parts of the ovaries from Xenopus laevis (Nasco, Fort Atkinson, WI, USA) anaesthetised with 1.5 g/L 3-aminobenzoic acid ethylester (Sigma, Taufkirchen, Germany). […] Oocytes were injected with 11 ng cRNA (10 ng of each cRNA for co-expression of GluN1 and GluN2A) using a nanoliter injector (WPI, Sarasota, FL, USA). Four days after cRNA injection, current responses were recorded under voltage clamp at –70 mV with a Turbo Tec-10CD amplifier (npi electronic, Tamm, Germany) controlled by Patchmaster software (HEKA, Lambrecht, Germany). Currents were filtered with a 20 Hz low-pass filter and then digitised with a sampling rate of 50 Hz. Recording electrodes were pulled from borosilicate glass (Hilgenberg, Malsfeld, Germany) with an L/M-3P-A vertical pipette puller (List-Medical), filled with 3 M KCl, and had resistances of 0.5–5 MΩ (voltage electrode) or 0.5–1.5 MΩ (current electrode). Recordings were performed in a 50 μL chamber under constant superfusion with extracellular solution at a flow rate of 3–5 mL/min. […] Finally, Ba-NFR and then NMDGR were applied again to check for reversibility.
# [2] = target: T2, GluD2-Lc(Y543Q)-(HS2)GluN1 (Rattus norvegicus, UniProt Q63226, A654T/A766F/D767R/N763E/R768S/T764L/V761T/V765F/Y543Q); test: as above; format: cell-based; conditions: fraction of spontaneous current inhibited by saturating D-serine
# T2 construct: the function of full-length receptors as well, we introduced them into the GluD2 lurcher mutant (GluD2-Lc); expressed in transfected cells; host or cells: Xenopus laevis oocytes injected with cRNA
# T2 sequence (Q63226 24-1007 Y543Q/A654T/V761T/N763E/T764L/V765F/A766F/D767R/R768S): T1 sequence (Q63226 24-1007 D542Y/Y543Q/S544G/A654T/V761T/N763E/T764L/V765F/A766F/D767R/R768S) with Y519D, G521S
# Source text: as §1, §2
structure (smiles),measurement,setting,value
N[C@H](CO)C(=O)O [D-serine],D-serine concentration of maximum inhibition of spontaneous currents,[1]; bell-shaped concentration–response curve,10 µM
same,D-serine efficacy Mean ± SEM,[1]; fraction of spontaneous current inhibited by saturating D-serine,13% and 12.9 ± 0.8%
same,"maximal, absolute, D-serine-induced steady-state inhibition of spontaneous currents",[1]; n = 30,53 ± 8 nA
same,D-serine efficacy Mean ± SEM,[2],24.1 ± 0.4%

# From publication PMC5384001 (Scientific Reports, 2017)
